# Earlier results as cited in patent publication US8324203B2, “Azadecalin glucocorticoid receptor modulators” (Corcept Therapeutics, Inc., priority 2004, dated 2012).
# Columns and labels:
# [1] = tested on: patients with Cushing's syndrome
# GR = GR (Homo sapiens, UniProt P04150)
# Chain of GR (P04150 whole entry): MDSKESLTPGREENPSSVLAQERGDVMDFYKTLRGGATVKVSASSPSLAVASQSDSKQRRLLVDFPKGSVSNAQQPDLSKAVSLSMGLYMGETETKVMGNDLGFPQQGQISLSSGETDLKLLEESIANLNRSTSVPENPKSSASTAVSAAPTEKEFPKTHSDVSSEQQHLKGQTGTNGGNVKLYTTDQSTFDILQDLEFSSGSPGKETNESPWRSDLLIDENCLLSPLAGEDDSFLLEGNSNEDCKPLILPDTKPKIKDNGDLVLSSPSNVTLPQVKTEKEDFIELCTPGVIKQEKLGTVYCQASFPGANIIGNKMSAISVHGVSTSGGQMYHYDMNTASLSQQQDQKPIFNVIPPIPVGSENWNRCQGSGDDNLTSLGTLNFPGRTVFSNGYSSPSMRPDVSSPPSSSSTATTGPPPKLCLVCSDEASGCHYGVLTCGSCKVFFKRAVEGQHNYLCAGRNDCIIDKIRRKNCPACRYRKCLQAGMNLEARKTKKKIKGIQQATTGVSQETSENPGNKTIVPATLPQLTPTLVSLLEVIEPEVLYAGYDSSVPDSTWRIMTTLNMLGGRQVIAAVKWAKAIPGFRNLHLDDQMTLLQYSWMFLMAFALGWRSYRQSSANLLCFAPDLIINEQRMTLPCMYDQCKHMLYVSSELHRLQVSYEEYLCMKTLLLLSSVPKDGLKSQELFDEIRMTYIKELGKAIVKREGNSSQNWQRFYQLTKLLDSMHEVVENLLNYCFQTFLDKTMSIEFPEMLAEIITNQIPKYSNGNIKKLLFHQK
smiles,measurement,setting,value
CC#C[C@]1(O)CC[C@H]2[C@@H]3CCC4=CC(=O)CCC4=C3[C@@H](c3ccc(N(C)C)cc3)C[C@@]21C [mifepristone],effect on acute psychosis,"[1]; 400 to 800 mg per day, severe Cushing Syndrome due to adrenal cancers and ectopic secretion of ACTH from lung cancer",useful in rapidly reversing acute psychosis
same,"effect on patients' conditions, including psychiatric status",[1]; Cushing's syndrome patients,improved the patients' conditions
same,anti-glucocorticoid activity in humans,GR,effective anti-glucocorticoid agent in humans
